Results: patent US12319672B2, “Alpha-D-galactopyranoside derivatives” (Idorsia Pharmaceuticals Ltd, priority 2019, dated 2025)

What was measured:
human Gal-1 (hGal-1) = assay: Competitive binding assay: binding of biotinylated hGal-1 to microplate-adsorbed asialofetuin (ASF); settings: Activities on hGal-1; mean values of several measurements
In short: (§1)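 Spectrophotometric readout (streptavidin-peroxidase, ABTS) of biotinylated galectin retained on ASF-coated wells. Biotinylated hGal-1 or hGal-3, 300-1000 ng/mL, co-incubated with test compound 3 h at 4° C, then washed. Mean IC50 from repeat runs.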

human Gal-3 (hGal-3) = human Gal-3 (hGal-3) (Homo sapiens (Human), UniProt P17931); assay: Competitive binding assay: binding of biotinylated hGal-3 to microplate-adsorbed asialofetuin (ASF); settings: Activity on hGal-3; mean values of several measurements
In short: as §1

Chain of human Gal-1 (hGal-1) (P09382 2-135 limits assumed): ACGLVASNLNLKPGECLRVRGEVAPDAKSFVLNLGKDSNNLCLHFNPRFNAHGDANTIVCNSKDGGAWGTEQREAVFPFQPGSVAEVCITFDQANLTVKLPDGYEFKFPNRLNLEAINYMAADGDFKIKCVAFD
Chain of human Gal-3 (hGal-3) (P17931 whole entry): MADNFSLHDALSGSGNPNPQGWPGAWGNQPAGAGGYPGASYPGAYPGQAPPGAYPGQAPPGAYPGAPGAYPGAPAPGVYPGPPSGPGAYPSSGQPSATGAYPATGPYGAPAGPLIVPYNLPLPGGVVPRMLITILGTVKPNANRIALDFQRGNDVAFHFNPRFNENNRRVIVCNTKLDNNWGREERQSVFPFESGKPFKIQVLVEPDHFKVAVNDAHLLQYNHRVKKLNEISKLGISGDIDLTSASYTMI

SMILES | IC50 (human Gal-1 (hGal-1)) | IC50 (human Gal-3 (hGal-3))
CO[C@@H]1[C@@H](n2cc(-c3cc(F)c(F)c(F)c3)nn2)[C@@H](O)[C@@H](CO)O[C@@H]1Cc1cc(C2(OC)CCCCC2)no1 [Ex 1.210] | 2730 nM | 290 nM
CCC1(c2cc(C[C@H]3O[C@H](CO)[C@H](O)[C@H](n4cc(-c5cc(F)c(F)c(F)c5)nn4)[C@H]3OC)on2)COC1 [Ex 1.212] | 1600 nM | 160 nM
CO[C@@H]1[C@@H](n2cc(-c3cc(F)c(F)c(F)c3)nn2)[C@@H](O)[C@@H](CO)O[C@@H]1Cc1cc(C2(F)CC2)no1 [Ex 1.213] | 1550 nM | 160 nM
CO[C@@H]1[C@@H](n2cc(-c3cc(F)c(F)c(F)c3)nn2)[C@@H](O)[C@@H](CO)O[C@@H]1Cc1cc(C(C)(C)NC(=O)OC(C)(C)C)no1 [Ex 1.216] | 3970 nM | 340 nM
CO[C@@H]1[C@@H](n2cc(-c3cc(F)c(F)c(F)c3)nn2)[C@@H](O)[C@@H](CO)O[C@@H]1Cc1cc(C(C)(C)N)no1 [Ex 1.217] | 2030 nM | 180 nM
CO[C@@H]1[C@@H](n2cc(-c3cc(F)c(F)c(Cl)c3)nn2)[C@@H](O)[C@@H](CO)O[C@@H]1Cc1cc(C2CCCCC2)on1 [Ex 1.218] | 10600 nM | 420 nM
CO[C@@H]1[C@@H](n2cc(-c3cc(F)c(F)c(F)c3)nn2)[C@@H](O)[C@@H](CO)O[C@@H]1Cc1cc(C2CCCC2)no1 [Ex 1.222] | 8000 nM | 110 nM
CO[C@@H]1[C@@H](n2cc(-c3cc(F)c(C#N)c(F)c3)nn2)[C@@H](O)[C@@H](CO)O[C@@H]1CC1CC(C2CCN(C(=O)OC(C)(C)C)CC2)=NO1 (stereo partly drawn) [Ex 1.223] | 16700 nM | 380 nM
CO[C@@H]1[C@@H](n2cc(-c3ccc(C)c(F)c3F)nn2)[C@@H](O)[C@@H](CO)O[C@@H]1Cc1cc(C2CCC2)on1 [Ex 1.224] | 14100 nM | 70 nM
CO[C@@H]1[C@@H](n2cc(-c3cc(F)c(F)c(F)c3)nn2)[C@@H](O)[C@@H](CO)O[C@@H]1Cc1cc(C2(O)CCC2)on1 [Ex 1.225] | 4850 nM | 530 nM
CO[C@@H]1[C@@H](n2cc(-c3ccc(Cl)c(F)c3F)nn2)[C@@H](O)[C@@H](CO)O[C@@H]1Cc1cc(C2CCC2)on1 [Ex 1.227] | 16600 nM | 77 nM
CO[C@@H]1[C@@H](n2cc(-c3ccc(C)c(F)c3F)nn2)[C@@H](O)[C@@H](CO)O[C@@H]1Cc1cc(-c2ccc(F)c(F)c2F)on1 [Ex 1.229] | > 100000 nM | 530 nM
CO[C@@H]1[C@@H](n2cc(-c3ccc(Cl)c(F)c3F)nn2)[C@@H](O)[C@@H](CO)O[C@@H]1Cc1cc(-c2ccc(F)c(F)c2F)on1 [Ex 1.231] | > 100000 nM | 910 nM
CO[C@@H]1[C@@H](n2cc(-c3ccc(F)c(F)c3F)nn2)[C@@H](O)[C@@H](CO)O[C@@H]1Cc1cc(C2(O)CCCCC2)on1 [Ex 1.233] | 1330 nM | 88 nM
CO[C@@H]1[C@@H](n2cc(-c3ccc(F)c(F)c3F)nn2)[C@@H](O)[C@@H](CO)O[C@@H]1Cc1cc(C2CCCC2)on1 [Ex 1.235] | 1330 nM | 100 nM
CO[C@@H]1[C@@H](n2cc(-c3ccc(C)c(F)c3F)nn2)[C@@H](O)[C@@H](CO)O[C@@H]1Cc1cc(C(C)(C)O)on1 [Ex 1.237] | 4220 nM | 75 nM

SMILES | IC50 (human Gal-1 (hGal-1)) | IC50 (human Gal-3 (hGal-3))
CO[C@@H]1[C@@H](n2cc(-c3ccc(C)c(F)c3F)nn2)[C@@H](O)[C@@H](CO)O[C@@H]1Cc1cc(C2(O)CCCCC2)on1 [Ex 1.238] | 3740 nM | 45 nM
CO[C@@H]1[C@@H](n2cc(-c3ccc(C)c(F)c3F)nn2)[C@@H](O)[C@@H](CO)O[C@@H]1Cc1cc(C2(O)CCCC2)on1 [Ex 1.239] | 6440 nM | 72 nM
CO[C@@H]1[C@@H](n2cc(-c3ccc(C)c(F)c3F)nn2)[C@@H](O)[C@@H](CO)O[C@@H]1Cc1cc(C2CCCC2)on1 [Ex 1.240] | 13900 nM | 100 nM
CO[C@@H]1[C@@H](n2cc(-c3ccc(C)c(F)c3F)nn2)[C@@H](O)[C@@H](CO)O[C@@H]1Cc1cc(C2(O)CCC2)on1 [Ex 1.241] | 2580 nM | 79 nM
CO[C@@H]1[C@@H](n2cc(-c3ccc(Cl)c(F)c3F)nn2)[C@@H](O)[C@@H](CO)O[C@@H]1Cc1cc(C(C)(C)O)on1 [Ex 1.242] | 2900 nM | 68 nM
CO[C@@H]1[C@@H](n2cc(-c3ccc(Cl)c(F)c3F)nn2)[C@@H](O)[C@@H](CO)O[C@@H]1Cc1cc(C2(O)CCCCC2)on1 [Ex 1.243] | 1330 nM | 42 nM
CO[C@@H]1[C@@H](n2cc(-c3ccc(Cl)c(F)c3F)nn2)[C@@H](O)[C@@H](CO)O[C@@H]1Cc1cc(C2(O)CCCC2)on1 [Ex 1.244] | 3290 nM | 110 nM
CO[C@@H]1[C@@H](n2cc(-c3ccc(Cl)c(F)c3F)nn2)[C@@H](O)[C@@H](CO)O[C@@H]1Cc1cc(C2CCCC2)on1 [Ex 1.245] | 1860 nM | 67 nM
CO[C@@H]1[C@@H](n2cc(-c3ccc(Cl)c(F)c3F)nn2)[C@@H](O)[C@@H](CO)O[C@@H]1Cc1cc(C2(O)CCC2)on1 [Ex 1.246] | 1720 nM | 73 nM
CO[C@@H]1[C@@H](n2cc(-c3cc(F)c(C)cc3F)nn2)[C@@H](O)[C@@H](CO)O[C@@H]1Cc1cc(C(C)(C)C)on1 [Ex 1.247] | 2290 nM | 210 nM
CO[C@@H]1[C@@H](n2cc(-c3cc(F)c(C)cc3F)nn2)[C@@H](O)[C@@H](CO)O[C@@H]1Cc1cc(C2CCCCC2)on1 [Ex 1.248] | > 100000 nM | 700 nM
CO[C@@H]1[C@@H](n2cc(-c3ccc(Br)c(F)c3)nn2)[C@@H](O)[C@@H](CO)O[C@@H]1Cc1cc(C2CCN(C(=O)OC(C)(C)C)CC2)on1 [Ex 1.249] | 1780 nM | 150 nM
CO[C@@H]1[C@@H](n2cc(-c3ccc(C)c(F)c3F)nn2)[C@@H](O)[C@@H](CO)O[C@@H]1Cc1cc(C2(C)CC2)no1 [Ex 1.255] | 2060 nM | 32 nM
CO[C@@H]1[C@@H](n2cc(-c3ccc(C)c(F)c3F)nn2)[C@@H](O)[C@@H](CO)O[C@@H]1Cc1cc(C2(C)COC2)no1 [Ex 1.256] | 1560 nM | 55 nM
CO[C@@H]1[C@@H](n2cc(-c3ccc(C)c(F)c3F)nn2)[C@@H](O)[C@@H](CO)O[C@@H]1Cc1cc(C(C)(C)CO)no1 [Ex 1.257] | 1780 nM | 44 nM

These reach a lower IC50 (human Gal-1 (hGal-1)). Values come first.

IC50 (human Gal-1 (hGal-1)) | IC50 (human Gal-3 (hGal-3)) | SMILES
1270 nM | 57 nM | CO[C@@H]1[C@@H](n2cc(-c3ccc(F)c(F)c3F)nn2)[C@@H](O)[C@@H](CO)O[C@@H]1Cc1cc(C2(O)CCCC2)on1 [Ex 1.234]
1190 nM | 130 nM | CO[C@@H]1[C@@H](n2cc(-c3ccc(F)c(F)c3F)nn2)[C@@H](O)[C@@H](CO)O[C@@H]1Cc1cc(C2CCC2)on1 [Ex 1.226]
1110 nM | 31 nM | CO[C@@H]1[C@@H](n2cc(-c3ccc(C)c(F)c3F)nn2)[C@@H](O)[C@@H](CO)O[C@@H]1Cc1cc(C(C)(C)C)no1 [Ex 1.254]
980 nM | 160 nM | CO[C@@H]1[C@@H](n2cc(-c3cc(F)c(F)c(Cl)c3)nn2)[C@@H](O)[C@@H](CO)O[C@@H]1Cc1cc(C(C)(C)C)on1 [Ex 1.221]
980 nM | 37 nM | CO[C@@H]1[C@@H](n2cc(-c3ccc(Cl)c(F)c3F)nn2)[C@@H](O)[C@@H](CO)O[C@@H]1Cc1cc(C(C)(C)C)no1 [Ex 1.258]
970 nM | 100 nM | CO[C@@H]1[C@@H](n2cc(-c3ccc(F)c(F)c3F)nn2)[C@@H](O)[C@@H](CO)O[C@@H]1Cc1cc(C(C)(C)O)on1 [Ex 1.232]
960 nM | 57 nM | CO[C@@H]1[C@@H](n2cc(-c3ccc(F)c(F)c3F)nn2)[C@@H](O)[C@@H](CO)O[C@@H]1Cc1cc(C2(O)CCC2)on1 [Ex 1.236]
920 nM | 130 nM | CO[C@@H]1[C@@H](n2cc(-c3cc(F)c(F)c(F)c3)nn2)[C@@H](O)[C@@H](CO)O[C@@H]1Cc1cc(C2(C(F)F)CC2)no1 [Ex 1.214]
790 nM | 200 nM | CO[C@@H]1[C@@H](n2cc(-c3cccc(F)c3)nn2)[C@@H](O)[C@@H](CO)O[C@@H]1Cc1cc(C2CCN(C(=O)OC(C)(C)C)CC2)on1 [Ex 1.228]
610 nM | 100 nM | CO[C@@H]1[C@@H](n2cc(-c3cc(F)c(F)c(F)c3)nn2)[C@@H](O)[C@@H](CO)O[C@@H]1Cc1cc(C2(C)CC2)no1 [Ex 1.215]
570 nM | 35 nM | CCOC(=O)N1CCC(c2cc(C[C@H]3O[C@H](CO)[C@H](O)[C@H](n4cc(-c5cc(F)c(F)c(Cl)c5)nn4)[C@H]3OC)no2)CC1 [Ex 1.220]
450 nM | 94 nM | CO[C@@H]1[C@@H](n2cc(-c3cc(F)c(F)c(F)c3)nn2)[C@@H](O)[C@@H](CO)O[C@@H]1Cc1cc(C2(C)COC2)no1 [Ex 1.211]
430 nM | 23 nM | CO[C@@H]1[C@@H](n2cc(-c3cc(F)c(F)c(Cl)c3)nn2)[C@@H](O)[C@@H](CO)O[C@@H]1Cc1cc(C2CCN(C(C)=O)CC2)on1 [Ex 1.219]
360 nM | 44 nM | CO[C@@H]1[C@@H](n2cc(-c3ccc(F)c(F)c3F)nn2)[C@@H](O)[C@@H](CO)O[C@@H]1Cc1cc(C2(C)CC2)no1 [Ex 1.251]
280 nM | 69 nM | CO[C@@H]1[C@@H](n2cc(-c3ccc(F)c(F)c3F)nn2)[C@@H](O)[C@@H](CO)O[C@@H]1Cc1cc(C2(C)COC2)no1 [Ex 1.252]
280 nM | 58 nM | CO[C@@H]1[C@@H](n2cc(-c3ccc(F)c(F)c3F)nn2)[C@@H](O)[C@@H](CO)O[C@@H]1Cc1cc(C(C)(C)CO)no1 [Ex 1.253]
250 nM | 57 nM | CO[C@@H]1[C@@H](n2cc(-c3ccc(F)c(F)c3F)nn2)[C@@H](O)[C@@H](CO)O[C@@H]1Cc1cc(C(C)(C)C)no1 [Ex 1.250]
